Experimental data taken from US20030229137A1, “Methods of inhibiting osteoclast activity” (priority 2001, published 2003).

Experiments:
[1] = system: synthesis of PGE2 in human platelets; conditions: applied five minutes before AA; cited from earlier work
[2] = system: ATP release in human platelets; conditions: applied five minutes before AA; cited from earlier work
[3] = system: AA-stimulated aggregation in human platelets; conditions: applied five minutes before AA; cited from earlier work
[4] = system: synthesis of TXA2 in human platelets; conditions: applied five minutes before AA; cited from earlier work
[5] = system: osteoclast formation from PBMC; assay: in vitro osteoclast formation assay (RANKL/M-CSF, MTS/TRAP); assay type: cell-based; conditions: for IC50: Osteoclast, read-out: IC50 (osteoclast formation inhibition); for suppression of osteoclast formation under the test conditions (in words): Table 1 experiments
Description: Each of the kavalactones isolated in Example 1 was studied in an in vitro osteoclast formation assay. The protocol used (essentially that described in T. Yoneda et al., Endocrinology, 129(2):683-689 (1991) and H. Zhou et al., J Biol. Chem., 272, 14926 (2001)) is as follows:
(A) Osteoclast Formation Culture
1) Prepare assay wells (n=4) for each dilution of a test compound in a 384-plate. Each well contains 25 μl of 2× conc. of the compound in 10% FBS-media/0.5% DMSO.
2) Suspend PBMC in 10% FBS-media supplemented with 40 ng/ml of RANKL and 20 ng/ml of human M-CSF at 1.5 M cells/ml.
3) Vortex cell suspension and filtrate through mesh filter to remove cell aggregates.
4) Inoculate 25 μl of cell suspension to each well.
5) Centrifuge the assay plate at 1500 rpm (˜700 g) for 1 min.
6) Start osteoclast formation culture in a 5% CO2-incubator.
7) After 48 h of the culture, replenish 10 μl of 10% FBS-media supplemented with 120 ng/ml of RANKL and 60 ng/ml of M-CSF. Continue the culture until multiple osteoclasts are visible in control wells (up to 4˜5 days).
1) Add 6 μl of MTS reagent to each well and further incubate 1˜2 hrs.
2) Measure absorbance at 490 nm.
3) Discard MTS/culture media and fix cells in 60% acetone/0.38 M citrate buffer, pH 5.4 for 30 sec. Rinse cells with MQ once and air-dried.
4) Incubate each well in 25 μl of 5 mM p-nitrophenyl phosphate/tartrate/acetic acid solution for 2˜3 hrs (divert buffers from acid phosphate, leukocyte kit from Sigma #386-A).
5) Measure absorbance at 405 nm.
6) Discard p-nitrophenyl phosphate solution, rinse wells with MQ and stain cells with the acid phosphate, leukocyte kit.
7) Count multinucleate (>3) TRAP#-positive cell number under microscope. # Tartarate Resistant Acid Phosphatase

[6] = protocol of Example 2, PBMC with RANKL and M-CSF

For `COC1=CC(=O)O[C@@H](/C=C/c2ccccc2)C1` [(+)-kawain], the IC50 [1] is given as 86 µM, the IC50 [2] is given as 115 µM and the IC50 [3] is given as 78 µM. For the same molecule, the IC50 [4] was 71 µM.
`C=CC[C@@H]1/C=C(\C)C[C@H](C)C[C@H](OC)[C@H]2O[C@@](O)(C(=O)C(=O)N3CCCC[C@H]3C(=O)O[C@H](/C(C)=C/[C@@H]3CC[C@@H](O)[C@H](OC)C3)[C@H](C)[C@@H](O)CC1=O)[C@H](C)C[C@@H]2OC` [FK506, reference compound] showed an IC50 [5, 6] of over 25 µg/mL.
With `CC(=O)Oc1ccccc1C(=O)O` [aspirin, reference compound] the IC50 [5, 6] was over 100 µM, the “suppression of osteoclast formation under the test conditions (in words)” value (shortened to “suppression of osteoclast formation”) [5] was “do not suppress osteoclast formation” and the inhibition of osteoclasts ([5]; at 25 μM) was “no inhibition”.
`Cc1ccc(-c2cc(C(F)(F)F)nn2-c2ccc(S(N)(=O)=O)cc2)cc1` [celecoxib, reference compound] gave an IC50 [5, 6] of over 100 µM.
For `COc1cc(/C=C/c2ccccc2)oc(=O)c1` [desmethoxyyangonin], the IC50 [5, 6] was 32 µM.
For `COC1=CC(=O)O[C@@H](CCc2ccccc2)C1` [dihydrokawain], the “relative osteoclast formation inhibitory activity among the six kavalactones” value [5] was “relatively higher osteoclast formation inhibitory activity”, the IC50 [5, 6] was 10 µM and the inhibition of osteoclasts ([5]; at 15 μM) was “almost complete inhibition”.
Molecule `COC1=CC(=O)O[C@@H](CCc2ccc3c(c2)OCO3)C1` [dihydromethysticin] has an IC50 [5, 6] of 13 µM.
`COC1=CC(=O)O[C@@H](/C=C/c2ccccc2)C1` [kawain] gave an IC50 [5, 6] of 28 µM.
In the case of `COC1=CC(=O)O[C@@H](/C=C/c2ccc3c(c2)OCO3)C1` [methysticin], the “relative osteoclast formation inhibitory activity among the six kavalactones” value [5] is reported as “relatively higher osteoclast formation inhibitory activity”, the IC50 [5, 6] is reported as 13 µM and the inhibition of osteoclasts ([5]; at 15 μM) is reported as “almost complete inhibition”.
For `CC/C(=C(\c1ccccc1)c1ccc(OCCN(C)C)cc1)c1ccccc1` [tamoxifen, reference compound], the “suppression of osteoclast formation” value [5] was “showed consistent activity”.
In the case of `COc1ccc(/C=C/c2cc(OC)cc(=O)o2)cc1` [yangonin], the “relative osteoclast formation inhibitory activity among the six kavalactones” value [5] is reported as “relatively higher osteoclast formation inhibitory activity”, the IC50 [5, 6] is reported as 8 µM and the inhibition of osteoclasts ([5]; at 10 μM) is reported as “almost complete inhibition”.
With “IL-4: endogeneous osteoclast formation inhibitor, control compound” the “suppression of osteoclast formation” value [5] was “showed consistent activity” and the “IC50 (osteoclast formation inhibition)” value [5, 6] was under 1 ng/mL.
